In patent US12234499B2, “Compositions, methods, systems and/or kits for detecting antimicrobial resistance in bacteria” (priority 2016, dated 2025):
Like-named read-outs stand apart in the source and are kept apart here.

Key:
Assay type in all cases: cell-based
E. aerogenes G1614 = experiment: Carbapenem MIC of study isolate; details: Klebsiella aerogenes, High AmpC
E. aerogenes G1648 = experiment: Carbapenem MIC of study isolate; details: Klebsiella aerogenes, High AmpC
E. cloacae G1637 = experiment: Carbapenem MIC of study isolate; details: Enterobacter cloacae, High AmpC
E. cloacae G1735 = experiment: Carbapenem MIC of study isolate; details: Enterobacter cloacae
E. coli G1693 = experiment: Carbapenem MIC of study isolate; details: Escherichia coli, High AmpC, S12like (Table 2), High AmpC (Table 4.2)
E. coli G164 = experiment: Carbapenem MIC of study isolate; details: Escherichia coli, High AmpC (Table 2), SHV-12-like (Table 4.2)
E. coli 0058 = experiment: Carbapenem MIC of study isolate; details: Escherichia coli, ESBL
E. coli 0086 = experiment: Carbapenem MIC of study isolate; details: Escherichia coli, CTX-M-9
K. pneumoniae 0044 = experiment: Carbapenem MIC of study isolate; details: Klebsiella pneumoniae, CTX-M-15, TEM-1, SHV-1
K. pneumoniae 0042 = experiment: Carbapenem MIC of study isolate; details: Klebsiella pneumoniae, CTX-M-28, OmpK35, OmpK36
K. pneumoniae 0047 = experiment: Carbapenem MIC of study isolate; details: Klebsiella pneumoniae, OmpK35
K. pneumoniae 0079 = experiment: Carbapenem MIC of study isolate; details: Klebsiella pneumoniae, CTX-M-14, OmpK35 (Table 4.2 also DHA-1)
K. pneumoniae G1758 = experiment: Carbapenem MIC of study isolate; details: Klebsiella pneumoniae, CLSI MHT negative control
K. pneumoniae 0109 = experiment: Carbapenem MIC of study isolate; details: Klebsiella pneumoniae, CTX-M-15, TEM-1, SHV-1
K. pneumoniae 0043 = experiment: Carbapenem MIC of study isolate; details: Klebsiella pneumoniae, SHV-12, OmpK36
M. morganii G1751 = experiment: Carbapenem MIC of study isolate; details: Morganella morganii, High AmpC
P. mirabilis G1745 = experiment: Carbapenem MIC of study isolate; details: Proteus mirabilis, CMY, TEM-1-like
K. pneumoniae G1685 = experiment: Carbapenem MIC of study isolate; details: Klebsiella pneumoniae, CMY-2-like
E. cloacae 0032 = experiment: Carbapenem MIC of study isolate; details: Enterobacter cloacae, KPC-3, TEM-1
A. baumannii 0052 = experiment: Carbapenem MIC of study isolate; details: Acinetobacter baumannii, OXA-58
K. ozaenae 0096 = experiment: Carbapenem MIC of study isolate; details: KPC
K. pneumoniae 0113 = experiment: Carbapenem MIC of study isolate; details: Klebsiella pneumoniae, KPC-3
E. coli 0119 = experiment: Carbapenem MIC of study isolate; details: Escherichia coli, NDM
E. coli 0137 = experiment: Carbapenem MIC of study isolate; details: Escherichia coli, NDM-6
P. mirabilis 0155 = experiment: Carbapenem MIC of study isolate; details: Proteus mirabilis, KPC
P. mirabilis 0156 = experiment: Carbapenem MIC of study isolate; details: Proteus mirabilis, KPC
P. aeruginosa G15 = experiment: Carbapenem MIC of study isolate; details: Pseudomonas aeruginosa, KPC-5
S. marcescens G153 = experiment: Carbapenem MIC of study isolate; details: Serratia marcescens, KPC
K. pneumoniae G157 = experiment: Carbapenem MIC of study isolate; details: Klebsiella pneumoniae, KPC-8
K. pneumoniae G158 = experiment: Carbapenem MIC of study isolate; details: Klebsiella pneumoniae, KPC-8
K. oxytoca G1640 = experiment: Carbapenem MIC of study isolate; details: Klebsiella oxytoca, KPC
K. pneumoniae G1675 = experiment: Carbapenem MIC of study isolate; details: Klebsiella pneumoniae, KPC-2, SHV-5-like
K. pneumoniae G1725 = experiment: Carbapenem MIC of study isolate; details: Klebsiella pneumoniae, KPC
A. baumannii G1734 = experiment: Carbapenem MIC of study isolate; details: Acinetobacter baumannii, OXA-40
K. oxytoca 0147 = experiment: Carbapenem MIC of study isolate; details: KPC
P. aeruginosa G15019 = experiment: Carbapenem MIC of study isolate
K. pneumoniae G1511 = experiment: Carbapenem MIC of study isolate
P. mirabilis G15185 = experiment: Carbapenem MIC of study isolate
P. aeruginosa G15557 = experiment: Carbapenem MIC of study isolate; details: VIM-like
E. cloacae G1693 = experiment: Carbapenem MIC of study isolate; details: Enterobacter cloacae, IMP-8 (Table 4.1)
C. freundii G1706 = experiment: Carbapenem MIC of study isolate; details: Citrobacter freundii, KPC
E. cloacae G1691 = experiment: Carbapenem MIC of study isolate; details: Enterobacter cloacae; IMP-8-producing E. cloacae G1691
[1] = tested on: Bacteria expressing Ambler Class B carbapenemases; experiment: Growth tests with chelating agents added to antibiotic; details: FIG. 9, FIG. 10, FIG. 21 and FIG. 22 (with MEM/CLOX or DOR/CLOX)
Procedure: Non-limiting embodiments of detection tests for enteric and non-fermenting bacteria, with various concentration ranges of one or more antibiotics, and various concentration ranges for one or more inhibitors are shown in FIG. 1-FIG. 24 and FIG. 31. These figures illustrate the concentration of the antibiotic being tested (in μg/ml) along the x-axis (not every concentration is tested in every figure), and the amount of growth of bacteria in the sample in the y-axis. The boxes illustrate the median, interquartile range, non-outlier minimum and maximum; with asterisks representing single outliers. Each figure has a panel for Class A, Class B, and Class D producing bacteria, as well as a panel for non-carbapenemase producing bacteria (NEG). In some embodiments, the detection tests described herein are not performed by imaging a change in cell morphology.

[2] = Klebsiella oxytoca, read-out: MIC
[3] = Pseudomonas aeruginosa, VIM-2, read-out: MIC
[4] = Klebsiella pneumoniae, KPC-4, read-out: MIC
[5] = Proteus mirabilis, IMP-27, read-out: MIC
[6] = Pseudomonas aeruginosa, read-out: MIC

With `C[C@@H](O)[C@H]1C(=O)N2C(C(=O)O)=C(S[C@@H]3CN[C@H](C(=O)N(C)C)C3)[C@H](C)[C@H]12` [Meropenem] the MIC (E. aerogenes G1614) was > 8 µg/mL, the MIC (E. aerogenes G1648) was > 8 µg/mL and the MIC (E. cloacae G1637) was > 8 µg/mL. The MIC (E. cloacae G1735) was > 8 µg/mL, the MIC (E. coli G1693) was > 8 µg/mL and the MIC (E. coli G164) was > 8 µg/mL. The MIC (E. coli 0058) was 0.5 µg/mL, the MIC (E. coli 0086) was > 8 µg/mL and the MIC (K. pneumoniae 0044) was > 8 µg/mL. The MIC (K. pneumoniae 0042) was 4 µg/mL, the MIC (K. pneumoniae 0047) was > 8 µg/mL and the MIC (K. pneumoniae 0079) was > 8 µg/mL. For the same compound, the MIC (K. pneumoniae G1758) was 1 µg/mL, the MIC (K. pneumoniae 0109) was 8 µg/mL and the MIC (K. pneumoniae 0043) was > 8 µg/mL. For the same compound, the MIC (M. morganii G1751) was 4 µg/mL, the MIC (P. mirabilis G1745) was ≤ 0.125 µg/mL and the MIC (K. pneumoniae G1685) was > 8 µg/mL. The MIC (E. cloacae 0032) was 2 µg/mL, the MIC (A. baumannii 0052) was 8 µg/mL and the MIC (K. ozaenae 0096) was > 8 µg/mL. The MIC (K. pneumoniae 0113) was > 8 µg/mL, the MIC (E. coli 0119) was > 8 µg/mL and the MIC (E. coli 0137) was > 8 µg/mL. For the same compound, the MIC (P. mirabilis 0155) was 8 µg/mL, the MIC (P. mirabilis 0156) was 0.25 µg/mL and the MIC (P. aeruginosa G15) was > 8 µg/mL. The MIC (S. marcescens G153) was > 8 µg/mL, the MIC (K. pneumoniae G157) was > 8 µg/mL and the MIC (K. pneumoniae G158) was > 8 µg/mL. The MIC (K. oxytoca G1640) was > 8 µg/mL, the MIC (K. pneumoniae G1675) was > 8 µg/mL and the MIC (K. pneumoniae G1725) was > 8 µg/mL. The MIC (A. baumannii G1734) was > 8 µg/mL, the MIC (K. oxytoca 0147; listed as MEM) was >8 µg/mL and the MIC (K. oxytoca 0147; [2]) was > 8 µg/mL. For the same compound, the MIC (P. aeruginosa G15019; [3]) was 4 µg/mL, the MIC (K. pneumoniae G1511; [4]) was 2 µg/mL and the MIC (P. mirabilis G15185; IMP-27, listed as MEM) was >8 µg/mL. For the same compound, the MIC (P. mirabilis G15185; [5]) was > 8 µg/mL, the MIC (P. aeruginosa G15557; [6]) was 4 µg/mL and the MIC (E. cloacae G1693) was 0.5 µg/mL. For the same compound, the MIC (C. freundii G1706) was 0.25 µg/mL and the MIC (E. cloacae G1691) was 0.5 µg/mL.

For `O=C(O)c1cccc(C(=O)O)n1` [DPA, dipicolinic acid], the “concentration at which bacteria are sensitive” value [1] was 180 µg/mL.

`C[C@@H](O)[C@H]1C(=O)N2C(C(=O)O)=C(S[C@@H]3CN[C@H](C(=O)Nc4cccc(C(=O)O)c4)C3)[C@H](C)[C@H]12` [Ertapenem] was tested, and the MIC (E. aerogenes G1614) was > 1 µg/mL, the MIC (E. aerogenes G1648) was > 1 µg/mL and the MIC (E. cloacae G1637) was > 1 µg/mL. For the same compound, the MIC (E. cloacae G1735) was > 1 µg/mL, the MIC (E. coli G1693) was > 1 µg/mL and the MIC (E. coli G164) was > 1 µg/mL. The MIC (E. coli 0058) was > 1 µg/mL, the MIC (E. coli 0086) was > 1 µg/mL and the MIC (K. pneumoniae 0044) was > 1 µg/mL. For the same compound, the MIC (K. pneumoniae 0042) was > 1 µg/mL, the MIC (K. pneumoniae 0047) was > 1 µg/mL and the MIC (K. pneumoniae 0079) was > 1 µg/mL. The MIC (K. pneumoniae G1758) was > 1 µg/mL, the MIC (K. pneumoniae 0109) was > 1 µg/mL and the MIC (K. pneumoniae 0043) was > 1 µg/mL. The MIC (M. morganii G1751) was > 1 µg/mL, the MIC (P. mirabilis G1745) was ≤ 0.25 µg/mL and the MIC (K. pneumoniae G1685) was > 1 µg/mL. The MIC (E. cloacae 0032) was > 1 µg/mL, the MIC (A. baumannii 0052) was > 1 µg/mL and the MIC (K. ozaenae 0096) was > 1 µg/mL. The MIC (K. pneumoniae 0113) was > 1 µg/mL, the MIC (E. coli 0119) was > 1 µg/mL and the MIC (E. coli 0137) was > 1 µg/mL. For the same compound, the MIC (P. mirabilis 0155) was > 1 µg/mL, the MIC (P. mirabilis 0156) was 0.5 µg/mL and the MIC (P. aeruginosa G15) was > 1 µg/mL. For the same compound, the MIC (S. marcescens G153) was > 1 µg/mL, the MIC (K. pneumoniae G157) was > 1 µg/mL and the MIC (K. pneumoniae G158) was > 1 µg/mL. The MIC (K. oxytoca G1640) was > 1 µg/mL, the MIC (K. pneumoniae G1675) was > 1 µg/mL and the MIC (K. pneumoniae G1725) was > 1 µg/mL. For the same compound, the MIC (A. baumannii G1734) was > 1 µg/mL, the MIC (K. oxytoca 0147; listed as ERT) was >1 µg/mL and the MIC (K. oxytoca 0147; [2]) was > 1 µg/mL. For the same compound, the MIC (P. aeruginosa G15019; [3]) was > 1 µg/mL, the MIC (P. aeruginosa G15019; VIM-2, listed as ERT) was >1 µg/mL and the MIC (K. pneumoniae G1511; KPC-4, listed as ERT) was >1 µg/mL. The MIC (K. pneumoniae G1511; [4]) was > 1 µg/mL, the MIC (P. mirabilis G15185; IMP-27, listed as ERT) was >1 µg/mL and the MIC (P. mirabilis G15185; [5]) was > 1 µg/mL. For the same compound, the MIC (P. aeruginosa G15557; [6]) was > 1 µg/mL, the MIC (P. aeruginosa G15557; listed as ERT) was >1 µg/mL and the MIC (E. cloacae G1693) was 0.5 µg/mL. For the same compound, the MIC (C. freundii G1706) was 1 µg/mL and the MIC (E. cloacae G1691) was > 1 µg/mL.
